Values after ≈ are worked out from the molar mass of the structure shown.
Assays:
[1] = solubility limit of genipin in the liquid composition; assay type: physicochemical; settings: liquid composition: solvent with dissolved genipin; liquid form, solvent water or buffered water
Procedure: (§1) In liquid form, the composition consists of at least a solvent and dissolved genipin in an amount in the range of 10 mM to 200 mM (millimolar), with a preference towards the upper end of this range. […] The ultimate upper limit of 200 mM is the amount where the tattoo applicator becomes too stiff and ultimately impractical to use. The solvent may be pure water, or alternatively buffered water. It has been discovered that maintaining an optimal pH of 7.4 produces the highest degree of effectiveness. Use of a buffer allows such a pH to be accurately maintained at the optimal level of 7.4. However, for efficacy pure water may be used instead of buffered water. The pH of water is 7.0, which reasonably approximates the determined optimal pH, and is within a range of pH values which lead to preferred results. In a preferred embodiment, isopropyl alcohol or ethyl alcohol is added to the formulation to provide enhanced drying capabilities and increased genipin solubility.

[2] = test system: human skin; experiment: staining (inking) of skin; assay type: in vivo; settings: liquid form, dissolved genipin
Procedure: as §1, with “solubility. Generally, the use of water as the solvent is preferred over other possible solvents because certain steps in the inking or staining reaction depend on water as a catalyst. […] Water has a viscosity of 1 centipoise (cP), which is a very low level and one that has been determined to be preferred for the composition of the invention. […]” for “solubility.”

[3] = test system: cells; settings: cited from earlier work
[4] = at basic pH; cited from earlier work

solubility [1]: 95 mM (≈ 21.5 mg/mL)
Compound: COC(=O)C1=CO[C@@H](O)[C@@H]2C(CO)=CC[C@H]12 [genipin]
minimum concentration required for staining to take effect [2]: 10 mM
cytotoxicity (harmfulness to cells) [3]: low cytotoxicity
stability in solution [4]: unstable and undergoes self-polymerization

— patent US12458580B2, “Body ink compositions and applicators” (Inkbox Ink Inc., priority 2015, dated 2025)
